From PubChem BioAssay AID1963986 (Molecular Pharmacology Branch, DTP, NCI, 2024)

System: 171881-019-R-J1-PDC tumor spheroid viability
Experiment: Anticancer human tumor 171881-019-R-J1-PDC patient-derived invasive breast carcinoma cell line growth inhibition [PI3K]
Settings: spheroids with HUVEC and MSC; for IC50: curve of first compound; for viability, T/C: stronger effect = lower value; active means viability on the fitted dose curve at most 10% of control; inactive means the rest
In short: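 Combination activity was assessed by viability in multicellular tumor spheroids carrying HUVEC and MSC components. Agents were tested with PI3K inhibitors from a Cmax-based top dose (or 10 microM) downward in half-log increments.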

[1] = second compound 0.00316 µM, first compound 0.0316 µM
[2] = second compound 0.00316 µM, first compound 0.1 µM
[3] = second compound 0.01 µM, first compound 0.0316 µM
[4] = second compound 0.01 µM, first compound 0.1 µM
[5] = second compound 0.0316 µM, first compound 0.0316 µM
[6] = second compound 0.0316 µM, first compound 0.1 µM
[7] = second compound 0.1 µM, first compound 0.0316 µM
[8] = second compound 0.1 µM, first compound 0.1 µM
[9] = second compound 0.316 µM, first compound 0.0316 µM
[10] = second compound 0.316 µM, first compound 0.1 µM
[11] = second compound 1 µM, first compound 0.0316 µM
[12] = second compound 1 µM, first compound 0.1 µM
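Further: spheroids exposed to compound for 7 days before viability read.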
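Wherever viability, T/C is given: 100% = DMSO vehicle-treated spheroids.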

CC(C)n1nc(-c2ccc3oc(N)nc3c2)c2c(N)ncnc21 + CC(Nc1ccc2c(c1)OCCn1cc(N3C(=O)OCC3C(F)F)nc1-2)C(N)=O
4.01 nM: IC50 (second compound 0.01 µM)
9.16 nM: IC50 (second compound 0.00316 µM)
1.36 nM: IC50 (second compound 0.0316 µM)
active: viability, T/C [2] 4.49% | viability, T/C [4] 4.27% | viability, T/C [6] 3.7% | viability, T/C [7] 6.55% | viability, T/C [8] 3.2% | viability, T/C [9] 4.95% | viability, T/C [10] 2.96% | viability, T/C (second compound 1 µM, first compound 0.01 µM) 6.3% | viability, T/C [11] 4.24% | viability, T/C [12] 2.61%
< 0.316 nM: IC50 (second compound 0.1 µM) | IC50 (second compound 0.316 µM) | IC50 (second compound 1 µM)
inactive: viability, T/C (second compound 0.00316 µM, first compound 0.000316 µM) 80.2% | viability, T/C (second compound 0.00316 µM, first compound 0.001 µM) 76.2% | viability, T/C (second compound 0.00316 µM, first compound 0.00316 µM) 69.5% | viability, T/C (second compound 0.00316 µM, first compound 0.01 µM) 49.4% | viability, T/C [1] 17.4% | viability, T/C (second compound 0.01 µM, first compound 0.000316 µM) 71.7% | viability, T/C (second compound 0.01 µM, first compound 0.001 µM) 69.9% | viability, T/C (second compound 0.01 µM, first compound 0.00316 µM) 49.7% | viability, T/C (second compound 0.01 µM, first compound 0.01 µM) 38.5% | viability, T/C [3] 12.6% | viability, T/C (second compound 0.0316 µM, first compound 0.000316 µM) 58.5% | viability, T/C (second compound 0.0316 µM, first compound 0.001 µM) 50.9% | viability, T/C (second compound 0.0316 µM, first compound 0.00316 µM) 42.9% | viability, T/C (second compound 0.0316 µM, first compound 0.01 µM) 25.3% | viability, T/C [5] 8.97% | viability, T/C (second compound 0.1 µM, first compound 0.000316 µM) 43.2% | viability, T/C (second compound 0.1 µM, first compound 0.001 µM) 38.6% | viability, T/C (second compound 0.1 µM, first compound 0.00316 µM) 28.8% | viability, T/C (second compound 0.1 µM, first compound 0.01 µM) 13.3% | viability, T/C (second compound 0.316 µM, first compound 0.000316 µM) 26.6% | viability, T/C (second compound 0.316 µM, first compound 0.001 µM) 25.2% | viability, T/C (second compound 0.316 µM, first compound 0.00316 µM) 17.7% | viability, T/C (second compound 0.316 µM, first compound 0.01 µM) 8.83% | viability, T/C (second compound 1 µM, first compound 0.000316 µM) 18.8% | viability, T/C (second compound 1 µM, first compound 0.001 µM) 19.5% | viability, T/C (second compound 1 µM, first compound 0.00316 µM) 12.8%

CC1(C)CCC(CN2CCN(c3ccc(C(=O)NS(=O)(=O)c4ccc(NCC5CCOCC5)c([N+](=O)[O-])c4)c(Oc4cnc5[nH]ccc5c4)c3)CC2)=C(c2ccc(Cl)cc2)C1 + CC(Nc1ccc2c(c1)OCCn1cc(N3C(=O)OCC3C(F)F)nc1-2)C(N)=O
< 31.6 nM: IC50 (second compound 0.1 µM) | IC50 (second compound 0.316 µM) | IC50 (second compound 1 µM)
2720 nM: IC50 (second compound 0.01 µM)
inactive: viability, T/C [1] 83% | viability, T/C [2] 73.7% | viability, T/C (second compound 0.00316 µM, first compound 0.316 µM) 91.5% | viability, T/C (second compound 0.00316 µM, first compound 1 µM) 88.1% | viability, T/C (second compound 0.00316 µM, first compound 3.16 µM) 55.9% | viability, T/C (second compound 0.00316 µM, first compound 10 µM) 15% | viability, T/C [3] 79.2% | viability, T/C [4] 87.3% | viability, T/C (second compound 0.01 µM, first compound 0.316 µM) 76.8% | viability, T/C (second compound 0.01 µM, first compound 1 µM) 72.5% | viability, T/C (second compound 0.01 µM, first compound 3.16 µM) 46.5% | viability, T/C (second compound 0.01 µM, first compound 10 µM) 13.9% | viability, T/C [5] 55.9% | viability, T/C [6] 56.8% | viability, T/C (second compound 0.0316 µM, first compound 0.316 µM) 61.6% | viability, T/C (second compound 0.0316 µM, first compound 1 µM) 55.3% | viability, T/C (second compound 0.0316 µM, first compound 3.16 µM) 41.2% | viability, T/C (second compound 0.0316 µM, first compound 10 µM) 10.3% | viability, T/C [7] 41.6% | viability, T/C [8] 41.2% | viability, T/C (second compound 0.1 µM, first compound 0.316 µM) 40.6% | viability, T/C (second compound 0.1 µM, first compound 1 µM) 43.4% | viability, T/C (second compound 0.1 µM, first compound 3.16 µM) 36.5% | viability, T/C (second compound 0.1 µM, first compound 10 µM) 7.86% | viability, T/C [9] 28.6% | viability, T/C [10] 27.1% | viability, T/C (second compound 0.316 µM, first compound 0.316 µM) 28.5% | viability, T/C (second compound 0.316 µM, first compound 1 µM) 28.3% | viability, T/C (second compound 0.316 µM, first compound 3.16 µM) 29.5% | viability, T/C (second compound 0.316 µM, first compound 10 µM) 5% | viability, T/C [11] 20.9% | viability, T/C [12] 20.9% | viability, T/C (second compound 1 µM, first compound 0.316 µM) 22% | viability, T/C (second compound 1 µM, first compound 1 µM) 23.4% | viability, T/C (second compound 1 µM, first compound 3.16 µM) 22% | viability, T/C (second compound 1 µM, first compound 10 µM) 6.08%
1590 nM: IC50 (second compound 0.0316 µM)
3730 nM: IC50 (second compound 0.00316 µM)
